From patent publication US20260184712A1, “Heterocyclic Compounds as ENT Inhibitors and Compounds for Use in the Treatment of Cancers” (iTeos Belgium SA, priority 2022, published 2026)
pIC50: −log10 of the molar value.

Each compound was assayed against T1, human ENT1 (Homo sapiens, UniProt Q99808) (assay: ENT1 binding assay (competition with Sahenta-DY647 on JAR cells)). Details: competition with SAHENTA-DY647 binding; IC50 categorized; read-out: Binding Assay IC50.
T1 construct: JAR cells expressing ENT1 were purchased from ATCC; host or cells: JAR cells
T1 sequence (Q99808 1-456): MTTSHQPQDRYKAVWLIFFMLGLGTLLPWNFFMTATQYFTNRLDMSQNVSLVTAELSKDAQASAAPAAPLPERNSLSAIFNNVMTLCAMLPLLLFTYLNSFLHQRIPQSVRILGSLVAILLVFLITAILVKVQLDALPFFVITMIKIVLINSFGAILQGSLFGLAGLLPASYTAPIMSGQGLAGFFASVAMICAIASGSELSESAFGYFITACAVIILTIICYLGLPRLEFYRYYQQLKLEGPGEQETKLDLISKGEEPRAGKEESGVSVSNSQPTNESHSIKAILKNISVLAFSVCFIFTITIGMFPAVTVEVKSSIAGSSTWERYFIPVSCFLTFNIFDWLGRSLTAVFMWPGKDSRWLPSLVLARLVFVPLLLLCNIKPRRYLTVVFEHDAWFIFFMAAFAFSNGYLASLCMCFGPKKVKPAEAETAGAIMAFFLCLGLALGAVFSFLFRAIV
Experimental: Compounds of the present disclosure were assayed to show ability to bind to human ENT1. The assay is a competition between a compound of interest and Sahenta-DY647, an ENT1 inhibitor that emits fluorescence (Ex=630 nm, Em=670 nm). By measuring the fluorescence at the end of the assay, one can assess the binding potency of the compounds tested. The compounds of the present disclosure were tested and compared to known ENT inhibitors, dilazep and NBMPR:
JAR cells expressing ENT1 were purchased from ATCC® (HTB-144TM). Cells were cultured in RPMI 1640 medium (LONZA®, #BE12-702F/U1) supplemented with 10% FBS (GIBCO®, #10270-106), 10 mM Hepes (LONZA®, #BE17-737E), 1 mM Sodium Pyruvate (LONZA®, #BE13-115E), and 2% Penicillin/Streptomycin (LONZA®, #DE17-603E) at 37° C. and 5% CO2.
The assay was conducted with the following buffer on the day of the assay: HBSS (LONZA®, #LO-527F) supplemented with 10 mM Hepes (LONZA®, #BE17-737E) and 0.1% BSA (Miltenyi®, #130-091-376).
JAR cells were resuspended in the described buffer. The compounds of interest and Sahenta-DY647 were diluted 200× with the described buffer.
A total of 50,000 cells were pre-incubated for 30 min at 4° C. with the compounds of the present disclosure before adding the corresponding amount of Sahenta-DY647 (100 nM) to the minimal concentration at Bmax and incubating for an additional 30 min at 4° C. The total volume of the reaction was 100 μL (50 μL of cells, 25 μL of the compounds of the present disclosure, and 25 μL of Sahenta-DY647) in a U-bottom 96 well plate (Greiner®, #650-180). The plates were washed 2× by centrifugation (4 min, 400 rcf at 4° C.) in the same buffer. Cells were re-suspended in 70 μL of the buffer and 50 μL was transferred to a Black 384 Optiplate (PerkinElmer®, #6007279). Fluorescence (Ex=630 nm, Em=670 nm) was acquired on a Spectramax i3x (Molecular Devices®).
Dose-response data from the compounds were analyzed with Graphpad Prism 9.1.1@software, using nonlinear regression applied to a sigmoidal dose-response model and the following equation:
Y=Bottom+(Top-Bottom)/(1+10^((LogIC50−X)*HillSlope)), with a shared bottom and top between the test reagent and dipyridamole.
Data from multiple experiments were compiled by taking the average pIC50 value for the reagent in question±the standard deviation (s.d.) and expressing it as an average IC50 value in nM.
The inhibitory effect of the test compound was expressed as a percentage of the inhibition of SAHENTA-DY647 binding.

Row | pIC50 | Compound
1 | < 6.30 | C[C@H]1O[C@@H](n2cnc3c(OCc4cccc(C(N)=O)c4)ncnc32)[C@H](O)[C@@H]1O [Compound 373]
2 | < 6.30 | C[C@H]1O[C@@H](n2cnc3c(C(=O)NCc4ccc([N+](=O)[O-])cc4)ncnc32)[C@H](O)[C@@H]1O [Compound 312]
3 | < 6.30 | C[C@H]1O[C@@H](n2cnc3c(C(=O)N4CCc5cc([N+](=O)[O-])ccc5C4)ncnc32)[C@H](O)[C@@H]1O [Compound 302]
4 | 6.30 to 7.70 | C[C@H]1O[C@@H](n2cnc3c(OCc4ccc(F)c(F)c4)ncnc32)[C@H](O)[C@@H]1O [Compound 201]
5 | < 6.30 | C[C@H]1O[C@@H](n2cnc3c(OCc4ccc([N+](=O)[O-])cc4)nc(F)nc32)[C@H](O)[C@@H]1O [Compound 225]
6 | 6.30 to 7.70 | CCNc1nc2c(N3CCc4ccc(C#N)cc4C3)ncnc2n1[C@@H]1O[C@H](C)[C@@H](O)[C@H]1O [Compound 198]
7 | < 6.30 | C[C@H]1O[C@@H](n2cnc3c(NCc4ccc5c(c4)CCC5)ncnc32)[C@H](O)[C@@H]1O [Compound 322]
8 | < 6.30 | C[C@H]1O[C@@H](n2c(O)nc3c(OCc4ccc([N+](=O)[O-])cc4)ncnc32)[C@H](O)[C@@H]1O [Compound 247]
9 | < 6.30 | C[C@H]1O[C@@H](n2cnc3c(C(=O)Nc4ccc([N+](=O)[O-])cc4)ncnc32)[C@H](O)[C@@H]1O [Compound 341]
10 | < 6.30 | C[C@H]1O[C@@H](n2cnc3c(C(=O)N4CCc5ccc([N+](=O)[O-])cc5C4)ncnc32)[C@H](O)[C@@H]1O [Compound 360]

The next lines start with the compound.

Row | Compound | pIC50
11 | C[C@H]1O[C@@H](n2c(NCCO)nc3c(OCc4ccc(C#N)cc4)ncnc32)[C@H](O)[C@@H]1O [Compound 41] | 6.30 to 7.70
12 | C[C@H]1O[C@@H](n2c(NCCCS(C)(=O)=O)nc3c(OCc4ccc(C#N)cc4)ncnc32)[C@H](O)[C@@H]1O [Compound 61] | 6.30 to 7.70
13 | COc1ccc(COc2ncnc3c2ncn3[C@@H]2O[C@H](C)[C@@H](O)[C@H]2O)cc1OC1CCCC1 [Compound 346] | < 6.30
14 | C[C@H]1O[C@@H](n2cnc3c(OCCc4cnc(OCF)nc4)ncnc32)[C@H](O)[C@@H]1O [Compound 356] | < 6.30
15 | C[C@H]1O[C@@H](n2cnc3c(SCc4ccc5ccncc5c4)ncnc32)[C@H](O)[C@@H]1O [Compound 308] | < 6.30
16 | C[C@H]1O[C@@H](n2cnc3c(NCc4ccccc4C#N)ncnc32)[C@H](O)[C@@H]1O [Compound 357] | < 6.30
17 | C[C@H]1O[C@@H](n2cnc3c(OCc4ccc(-c5ccn(C)n5)cc4)ncnc32)[C@H](O)[C@@H]1O [Compound 383] | < 6.30
18 | C[C@H]1O[C@@H](n2cnc3c(SCc4ccc(C(=N)N)cc4)ncnc32)[C@H](O)[C@@H]1O [Compound 410] | < 6.30
19 | C[C@H]1O[C@@H](n2c(NCC3COC3)nc3c(OCc4ccc(OC(F)F)cc4)ncnc32)[C@H](O)[C@@H]1O [Compound 424] | < 6.30
20 | C[C@H]1O[C@@H](n2c(N[C@H]3C[C@@H](O)C3)nc3c(OCc4ccc([N+](=O)[O-])cc4)ncnc32)[C@H](O)[C@@H]1O [Compound 48] | 7.70 to 9.00
21 | CCOC(=O)/C=C/[C@H]1O[C@@H](n2cnc3c(OCc4ccc([N+](=O)[O-])cc4)ncnc32)[C@H](O)[C@@H]1O [Compound 169] | 6.30 to 7.70
22 | C[C@H]1O[C@@H](n2c(NCCN3CCN(C)CC3)nc3c(OCc4ccc([N+](=O)[O-])cc4)ncnc32)[C@H](O)[C@@H]1O [Compound 33] | 6.30 to 7.70
23 | CCNc1nc2c(OCc3ccc(OC(F)F)cc3)ncnc2n1[C@@H]1O[C@H](C)[C@@H](O)[C@H]1O [Compound 38] | 7.70 to 9.00
24 | C[C@H]1O[C@@H](n2cnc3c(OCc4ccc(F)cc4)ncnc32)[C@H](O)[C@@H]1O [Compound 202] | 6.30 to 7.70
25 | CC(CCO)Nc1nc2c(OCc3ccc(OC(F)(F)F)cc3)ncnc2n1[C@@H]1O[C@H](C)[C@@H](O)[C@H]1O (some centres unmarked) [Compound 99] | 7.70 to 9.00
26 | C[C@H]1O[C@@H](n2c(NC3CCCC3)nc3c(OCc4ccc(C(F)F)nc4)ncnc32)[C@H](O)[C@@H]1O [Compound 95] | 7.70 to 9.00
